Data as given in US20130281399A1, “TREATMENT OF DISEASES BY EPIGENETIC REGULATION” (RVX Therapeutics Inc., priority 2012, published 2013).

Target: T1, Brd4 bromodomain 1 (Homo sapiens, UniProt O60885)
T1 construct: made in house; host or cells: E. coli BL21(DE3)
Assay: Inhibition of binding of tetra-acetylated histone H4 to Brd4 bromodomain 1 (TR-FRET)
Conditions: His-tagged Brd4 bromodomain 1 200 nM, tetra-acetylated histone H4 peptide 25-50 nM, 2 hours room temperature
Method: Proteins were cloned and overexpressed with a N-terminal 6×His tag, then purified by nickel affinity followed by size exclusion chromatography. Briefly, E. coli BL21(DE3) cells were transformed with a recombinant expression vector encoding N-terminally Nickel affinity tagged bromodomains from Brd2, Brd3, Brd4. Cell cultures were incubated at 37° C. with shaking to the appropriate density and induced overnight with IPTG. The supernatant of lysed cells was loaded onto Ni-IDA column for purification. Eluted protein was pooled, concentrated and further purified by size exclusion chromatography. Fractions representing monomeric protein were pooled, concentrated, aliquoted, and frozen at −80° C. for use in subsequent experiments.
For inhibition assays, serially diluted test compound was added to these reactions in a 0.2% final concentration of DMSO. Final buffer concentrations were 30 mM HEPES pH 7.4, 30 mM NaCl, 0.3 mM CHAPS, 20 mM phosphate pH 7.0, 320 mM KF, 0.08% BSA). […] The binding inhibitory activity was shown by a decrease in 665 nm fluorescence relative to 620 nm. IC50 values were determined from a dose response curve.

Row | SMILES | FRET activity (<50 uM)
1 | COc1cc(OC)c2c(=O)[nH]c(-c3ccc(N4CCN(CCO)CC4)cc3)nc2c1 [Example 1, 2-(4-(4-(2-hydroxyethyl)piperazin-1-yl)phenyl)-5,7-dimethoxyquinazolin-4(3H)-one] | Active
2 | COc1cc(OC)c2c(=O)[nH]c(-c3ccc(N4CCC(NCC5CC5)C4)cc3)nc2c1 (stereo not shown) [Example 4, 2-(4-(3-(cyclopropylmethylamino)pyrrolidin-1-yl)phenyl)-5,7-dimethoxyquinazolin-4(3H)-one] | Active
3 | COc1cc(OC)c2c(=O)[nH]c(-c3cc(C)c(OCCC4CN(C(C)=O)C4)c(C)c3)nc2c1 [Example 5, 2-(4-(2-(1-acetylazetidin-3-yl)ethoxy)-3,5-dimethylphenyl)-5,7-dimethoxyquinazolin-4(3H)-one] | Active
4 | COc1cc(OC)c2c(=O)[nH]c(-c3ccc(N4CCN(C(C)=O)CC4)cc3)nc2c1 [Example 11, 2-(4-(4-Acetylpiperazin-1-yl)phenyl)-5,7-dimethoxyquinazolin-4(3H)-one] | Active
5 | COc1cc(OC)c2c(=O)[nH]c(-c3ccc(N4CCC(NS(C)(=O)=O)CC4)cc3)nc2c1 [Example 14, N-(1-(4-(5,7-Dimethoxy-4-oxo-3,4-dihydroquinazolin-2-yl)phenyl)piperidin-4-yl)methanesulfonamide] | Active
6 | CCCCCC(=O)N1CCN(c2ccc(-c3nc4cc(OC)cc(OC)c4c(=O)[nH]3)cc2)CC1 [Example 16, 2-(4-(4-Hexanoylpiperazin-1-yl)phenyl)-5,7-dimethoxyquinazolin-4(3H)-one] | Inactive
7 | COc1cc(OC)c2c(=O)[nH]c(-c3ccc(N4CCN(C(=O)c5ccccc5)CC4)cc3)nc2c1 [Example 18, 2-(4-(4-Benzoylpiperazin-1-yl)phenyl)-5,7-dimethoxyquinazolin-4(3H)-one] | Inactive
8 | COc1cc(OC)c2c(=O)[nH]c(-c3ccc(N4CCN(C(=O)c5ccc(F)cc5)CC4)cc3)nc2c1 [Example 19, 2-(4-(4-(4-Fluorobenzoyl)piperazin-1-yl)phenyl)-5,7-dimethoxyquinazolin-4(3H)-one] | Inactive
9 | COc1cc(OC)c2c(=O)[nH]c(-c3ccc(N4CCN(C(=O)c5ccccn5)CC4)cc3)nc2c1 [Example 21, 5,7-Dimethoxy-2-(4-(4-picolinoylpiperazin-1-yl)phenyl)quinazolin-4(3H)-one] | Active
10 | COc1cc(OC)c2c(=O)[nH]c(-c3ccc(N4CCN(C(=O)c5cccnc5)CC4)cc3)nc2c1 [Example 22, 5,7-Dimethoxy-2-(4-(4-nicotinoylpiperazin-1-yl)phenyl)quinazolin-4(3H)-one] | Active
11 | COc1cc(OC)c2c(=O)[nH]c(-c3ccc(N4CCN(C(=O)c5cccs5)CC4)cc3)nc2c1 [Example 24, 5,7-Dimethoxy-2-(4-(4-(thiophene-2-carbonyl)piperazin-1-yl)phenyl)quinazolin-4(3H)-one] | Active
12 | COc1cc(OC)c2c(=O)[nH]c(-c3ccc(N4CCN(C(=O)c5cnn(C)c5Cl)CC4)cc3)nc2c1 [Example 25, 2-(4-(4-(5-Chloro-1-methyl-1H-pyrazole-4-carbonyl)piperazin-1-yl)phenyl)-5,7-dimethoxyquinazolin-4(3H)-one] | Inactive
13 | COc1cc(OC)c2c(=O)[nH]c(-c3ccc(N4CCN(C(=O)CC(F)(F)F)CC4)cc3)nc2c1 [Example 26, 5,7-Dimethoxy-2-(4-(4-(3,3,3-trifluoropropanoyl)piperazin-1-yl)phenyl)quinazolin-4(3H)-one] | Active
14 | COc1cc(OC)c2c(=O)[nH]c(-c3ccc(N4CCN(Cc5ccccc5)CC4)cc3)nc2c1 [Example 30, 2-(4-(4-Benzylpiperazin-1-yl)phenyl)-5,7-dimethoxyquinazolin-4(3H)-one] | Inactive
15 | O=c1[nH]c(-c2ccc(N3CCN(CC(F)(F)F)CC3)cc2)nc2ccccc12 [Example 31, 2-(4-(4-(2,2,2-Trifluoroethyl)piperazin-1-yl)phenyl)quinazolin-4(3H)-one] | Inactive
16 | COc1cc(OC)c2c(=O)[nH]c(-c3ccc(N4CCCN(C(C)=O)CC4)cc3)nc2c1 [Example 32, 2-(4-(4-Acetyl-1,4-diazepan-1-yl)phenyl)-5,7-dimethoxyquinazolin-4(3H)-one] | Active
17 | COc1cc(OC)c2c(=O)[nH]c(-c3ccc(N4CCCN(C)CC4)cc3)nc2c1 [Example 34, 5,7-Dimethoxy-2-(4-(4-methyl-1,4-diazepan-1-yl)phenyl)quinazolin-4(3H)-one] | Active

Other lines, results leading:

Row | FRET activity (<50 uM) | SMILES
18 | Active | CCCCN1CCN(c2ccc(-c3nc4cc(OC)cc(OC)c4c(=O)[nH]3)cc2)CC1 [Example 2, 2-(4-(4-butylpiperazin-1-yl)phenyl)-5,7-dimethoxyquinazolin-4(3H)-one]
19 | Active | COc1cc(OC)c2c(=O)[nH]c(-c3ccc(C4CCN(C(C)=O)CC4)cc3)nc2c1 [Example 3, 2-(4-(1-acetylpiperidin-4-yl)phenyl)-5,7-dimethoxyquinazolin-4(3H)-one]
20 | Active | COc1cc(OCCOC(C)C)c2c(=O)[nH]c(-c3cc(C)nc(C)c3)nc2c1 [Example 6, 2-(2,6-dimethylpyridin-4-yl)-5-(2-isopropoxyethoxy)-7-methoxyquinazolin-4(3H)-one]
21 | Active | COc1cc(OC)c2c(=O)[nH]c(-c3ccc(N4C[C@@H](C)N(C(C)=O)[C@@H](C)C4)cc3)nc2n1 [Example 7, 2-(4-((3R,5S)-4-Acetyl-3,5-dimethylpiperazin-1-yl)phenyl)-5,7-dimethoxypyrido[2,3-d]pyrimidin-4(3H)-one]
22 | Active | COc1cc(OC)c2c(=O)[nH]c(-c3ccc(N4CCNCC4)cc3)nc2c1 [Example 12, 5,7-Dimethoxy-2-(4-(piperazin-1-yl)phenyl)quinazolin-4(3H)-one]
23 | Active | COc1cc(OC)c2c(=O)[nH]c(-c3ccc(N4CCC(NC(C)=O)CC4)cc3)nc2c1 [Example 13, N-(1-(4-(5,7-Dimethoxy-4-oxo-3,4-dihydroquinazolin-2-yl)phenyl)piperidin-4-yl)acetamide]
24 | Active | COc1cc(OC)c2c(=O)[nH]c(-c3ccc(N4CCC(NC(=O)N(C)C)CC4)cc3)nc2c1 [Example 15, 3-(1-(4-(5,7-Dimethoxy-4-oxo-3,4-dihydroquinazolin-2-yl)phenyl)piperidin-4-yl)-1,1-dimethylurea]
25 | Active | COc1cc(OC)c2c(=O)[nH]c(-c3ccc(N4CCN(C(=O)C(C)C)CC4)cc3)nc2c1 [Example 17, 2-(4-(4-Isobutyrylpiperazin-1-yl)phenyl)-5,7-dimethoxyquinazolin-4(3H)-one]
26 | Inactive | COc1cc(OC)c2c(=O)[nH]c(-c3ccc(N4CCC(NC(=O)c5ccccc5)CC4)cc3)nc2c1 [Example 20, N-(1-(4-(5,7-Dimethoxy-4-oxo-3,4-dihydroquinazolin-2-yl)phenyl)piperidin-4-yl)benzamide]
27 | Active | COc1cc(OC)c2c(=O)[nH]c(-c3ccc(N4CCN(C(=O)c5ccncc5)CC4)cc3)nc2c1 [Example 23, 2-(4-(4-Isonicotinoylpiperazin-1-yl)phenyl)-5,7-dimethoxyquinazolin-4(3H)-one]
28 | Active | COc1cc(OC)c2c(=O)[nH]c(-c3ccc(N4CCN(C(=O)c5cc(Cl)sc5Cl)CC4)cc3)nc2c1 [Example 27, 2-(4-(4-(2,5-Dichlorothiophene-3-carbonyl)piperazin-1-yl)phenyl)-5,7-dimethoxyquinazolin-4(3H)-one]
29 | Active | COc1cc(OC)c2c(=O)[nH]c(-c3ccc(N4CCN(C(=O)C5CC5)CC4)cc3)nc2c1 [Example 28, 2-(4-(4-(Cyclopropanecarbonyl)piperazin-1-yl)phenyl)-5,7-dimethoxyquinazolin-4(3H)-one]
30 | Inactive | COc1cc(OC)c2c(=O)[nH]c(-c3ccc(N4CCN(Cc5ccc(F)cc5)CC4)cc3)nc2c1 [Example 29, 2-(4-(4-(4-Fluorobenzyl)piperazin-1-yl)phenyl)-5,7-dimethoxyquinazolin-4(3H)-one]
31 | Active | COc1cc(OC)c2c(=O)[nH]c(-c3ccc(N4CCCNCC4)cc3)nc2c1 [Example 33, 2-(4-(1,4-Diazepan-1-yl)phenyl)-5,7-dimethoxyquinazolin-4(3H)-one]
32 | Active | CCN(C(C)=O)C1CCN(c2ccc(-c3nc4cc(OC)cc(OC)c4c(=O)[nH]3)cc2)CC1 [Example 35, N-(1-(4-(5,7-Dimethoxy-4-oxo-3,4-dihydroquinazolin-2-yl)phenyl)piperidin-4-yl)-N-ethylacetamide]
33 | Active | COc1cc(OC)c2c(=O)[nH]c(-c3ccc(N4C[C@@H](C)N(C(C)=O)[C@@H](C)C4)cc3)nc2c1 [Example 36, 2-(4-((3R,5S)-4-Acetyl-3,5-dimethylpiperazin-1-yl)phenyl)-5,7-dimethoxyquinazolin-4(3H)-one]
34 | Active | COc1cc(OC)c2c(=O)[nH]c(-c3ccc(N4C[C@@H](C)N[C@@H](C)C4)cc3)nc2c1 [Example 37, 2-(4-((3R,5S)-3,5-Dimethylpiperazin-1-yl)phenyl)-5,7-dimethoxyquinazolin-4(3H)-one]
